# From patent US12091426B2, “Bifunctional degraders of hematopoietic progenitor kinase and therapeutic uses thereof” (Nurix Therapeutics, Inc., priority 2021, dated 2024)
# Biological target: T1, HPK1 (Homo sapiens, UniProt Q92918)
# T1 construct: A HiBiT tag was introduced by CRISPR on the N terminus of HPK1 in Jurkat cells; host or cells: Jurkat cells (ATCC TIB-152), monoclonal line with CRISPR knock-in of HiBiT at the endogenous HPK1 locus
# Assay: HPK1 Cellular HiBit Degradation Assay
# Type: cell-based
# Settings: HiBiT HPK1 Jurkat cells, 24 hrs; for DC50: concentration at which 50% of HPK1 was remaining, read-out: DC50 Category; for Dmax: Jurkat, maximum degradation vs DMSO vehicle control, read-out: Dmax Category
# Method in brief: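 Degraders are dosed in an 11-point series (10 uM to 0.1 nM final) onto Jurkat cells carrying an N-terminal HiBiT tag on endogenous HPK1. After 24 hrs at 37° C, lysis-based HiBiT luminescence quantifies remaining HPK1 relative to vehicle, and curve fitting gives DC50 and Dmax.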
# T1 sequence (Q92918 whole entry): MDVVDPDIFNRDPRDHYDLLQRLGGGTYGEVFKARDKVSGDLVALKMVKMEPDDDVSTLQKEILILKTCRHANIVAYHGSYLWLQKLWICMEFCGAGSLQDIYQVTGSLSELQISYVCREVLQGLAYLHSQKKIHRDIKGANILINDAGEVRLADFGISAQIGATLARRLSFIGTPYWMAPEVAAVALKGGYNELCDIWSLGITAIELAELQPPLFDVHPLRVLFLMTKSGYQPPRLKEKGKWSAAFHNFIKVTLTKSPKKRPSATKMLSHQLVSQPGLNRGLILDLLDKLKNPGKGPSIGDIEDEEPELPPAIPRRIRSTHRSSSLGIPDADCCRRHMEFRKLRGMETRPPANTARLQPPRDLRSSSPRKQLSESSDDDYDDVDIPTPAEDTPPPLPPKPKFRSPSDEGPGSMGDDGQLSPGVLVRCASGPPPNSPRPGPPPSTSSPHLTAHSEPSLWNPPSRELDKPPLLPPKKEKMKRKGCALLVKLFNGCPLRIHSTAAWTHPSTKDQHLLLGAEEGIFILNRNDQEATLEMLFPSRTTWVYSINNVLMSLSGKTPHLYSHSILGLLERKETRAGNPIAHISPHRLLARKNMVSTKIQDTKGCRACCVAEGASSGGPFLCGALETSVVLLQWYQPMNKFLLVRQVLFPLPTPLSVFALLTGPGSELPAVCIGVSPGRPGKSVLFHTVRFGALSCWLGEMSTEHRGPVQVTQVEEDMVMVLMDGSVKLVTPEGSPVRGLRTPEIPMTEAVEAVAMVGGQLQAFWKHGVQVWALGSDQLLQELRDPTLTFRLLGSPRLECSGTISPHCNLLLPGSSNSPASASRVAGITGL
Structure (SMILES),DC50 [nM],Dmax [%]
"CC(C)n1cnc2cc(-c3ccc4c(c3)N(C3CC(N5CCCCC5)C3)C(=O)C43CCN(CC(=O)N4CCN(C(=O)C5CCN(c6ccc(C7CCC(=O)NC7=O)cn6)CC5)CC4)CC3)nc(NC3CC3)c21 (centres unmarked) [Example 183, 3-(6-{4-[4-(2-{6-[4-(cyclopropylamino)-3-(propan-2-yl)-3H-imidazo[4,5-c]pyridin-6-yl]-2-oxo-1-[3-(piperidin-1-yl)cyclobutyl]-1,2-dihydrospiro[indole-3,4′-piperidine]-1′-yl}Acetyl)piperazine-1-carbonyl]piperidin-1-yl}pyridin-3-yl)piperidine-2,6-dione]",< 100,> 85
"CC(C)n1cnc2cc(-c3ccc4c(c3)N([C@H]3C[C@@H](N5CCCCC5)C3)C(=O)C43CCN(C(=O)[C@@H]4CCN(C(=O)[C@H]5CC[C@H](Nc6cncc(C7CCC(=O)NC7=O)c6)CC5)C4)CC3)nc(Nc3ccccc3F)c21 (mixture of isomers) [Example 12, (3RS)-3-(5-{[(1R,4R)-4-[(3R)-3-[(6-{4-[(2-fluorophenyl)amino]-3-(propan-2-yl)-3H-imidazo[4,5-c]pyridin-6-yl}-2-oxo-1-[(1S,3S)-3-(piperidin-1-yl)cyclobutyl]-1,2-dihydrospiro[indole-3,4′-piperidin]-1′-yl)carbonyl]pyrrolidine-1-carbonyl]cyclohexyl]amino}pyridin-3-yl)piperidine-2,6-dione]",500 to 1000,70 to 85
"CC(C)n1cnc2cc(-c3ccc4c(c3)N([C@H]3C[C@@H](N5CCCCC5)C3)C(=O)C43CCN(C(=O)C4CCN(C(=O)[C@H]5CC[C@H](Nc6cccc7c6C(=O)N(C6CCC(=O)NC6=O)C7=O)CC5)CC4)CC3)nc(Nc3ccccc3F)c21 (mixture of isomers) [Example 57, 2-[(3RS)-2,6-dioxopiperidin-3-yl]-4-{[(1R,4R)-4-{4-[(6-{4-[(2-fluorophenyl)amino]-3-(propan-2-yl)-3H-imidazo[4,5-c]pyridin-6-yl}-2-oxo-1-[(1S,3S)-3-(piperidin-1-yl)cyclobutyl]-1,2-dihydrospiro[indole-3,4′-piperidin]-1′-yl)carbonyl]piperidine-1-carbonyl}cyclohexyl]amino}-2,3-dihydro-1H-isoindole-1,3-dione]",100 to 500,70 to 85
"CC(C)n1cnc2cc(-c3ccc4c(c3)N([C@H]3C[C@@H](N5CCCCC5)C3)C(=O)C43CCN(C(=O)C4(C)CCN(C(=O)[C@H]5CC[C@H](Cn6cc7cc(C8CCC(=O)NC8=O)ccc7n6)CC5)CC4)CC3)nc(Nc3ccccc3F)c21 (mixture of isomers) [Example 190, (3RS)-3-(2-{[(1R,4R)-4-{4-[(6-{4-[(2-fluorophenyl)amino]-3-(propan-2-yl)-3H-imidazo[4,5-c]pyridin-6-yl}-2-oxo-1-[(1S,3S)-3-(piperidin-1-yl)cyclobutyl]-1,2-dihydrospiro[indole-3,4′-piperidin]-1′-yl)carbonyl]-4-methylpiperidine-1-carbonyl}cyclohexyl]methyl}-2H-indazol-5-yl)piperidine-2,6-dione]",< 100,50 to 70
"CC(C)n1cnc2cc(-c3ccc4c(c3)N([C@H]3C[C@@H](N5CCCCC5)C3)C(=O)C43CCN(C(=O)c4ccc(CN5CCN(C(=O)C6CCN(c7ccc(C8CCC(=O)NC8=O)cn7)CC6)CC5)cc4)CC3)nc(NC3CC3)c21 (mixture of isomers) [Example 293, (3RS)-3-{6-[4-(4-{[4-({6-[4-(cyclopropylamino)-3-(propan-2-yl)-3H-imidazo[4,5-c]pyridin-6-yl]-2-oxo-1-[(1S,3S)-3-(piperidin-1-yl)cyclobutyl]-1,2-dihydrospiro[indole-3,4′-piperidin]-1′-yl}carbonyl)phenyl]methyl}piperazine-1-carbonyl)piperidin-1-yl]pyridin-3-yl}piperidine-2,6-dione]",100 to 500,70 to 85
"CC(C)n1cnc2cc(-c3ccc4c(c3)N([C@H]3C[C@@H](N5CCCCC5)C3)C(=O)C43CCN(C(=O)C4(C)CCN(C(=O)C5CCN(c6ccc(C7CCC(=O)NC7=O)cn6)CC5)CC4)CC3)nc(Oc3ccccc3)c21 (stereo partly drawn) [Example 168, 3-(6-{4-[4-methyl-4-({2-oxo-6-[4-phenoxy-3-(propan-2-yl)-3H-imidazo[4,5-c]pyridin-6-yl]-1-[(1S,3S)-3-(piperidin-1-yl)cyclobutyl]-1,2-dihydrospiro[indole-3,4′-piperidin]-1′-yl}carbonyl)piperidine-1-carbonyl]piperidin-1-yl}pyridin-3-yl)piperidine-2,6-dione]",< 100,> 85
"CC(C)n1cnc2cc(-c3ccc4c(c3)N([C@H]3C[C@@H](N5CCCCC5)C3)C(=O)C43CCN(C(=O)C4(C)CCN(C(=O)C5CCN(c6ccc(N7CCC(=O)NC7=O)cn6)CC5)CC4)CC3)nc(NC3CC3)c21 [Example 115, 1-(6-{4-[4-({6-[4-(cyclopropylamino)-3-(propan-2-yl)-3H-imidazo[4,5-c]pyridin-6-yl]-2-oxo-1-[(1S,3S)-3-(piperidin-1-yl)cyclobutyl]-1,2-dihydrospiro[indole-3,4′-piperidin]-1′-yl}carbonyl)-4-methylpiperidine-1-carbonyl]piperidin-1-yl}pyridin-3-yl)-1,3-diazinane-2,4-dione]",< 100,70 to 85
"CC(C)n1cnc2cc(-c3ccc4c(c3)N([C@H]3C[C@@H](N5CCCCC5)C3)C(=O)C43CCN(C(=O)C4CCN(C(=O)C5CCN(c6ccc(C7CCC(=O)NC7=O)cc6)CC5)CC4)CC3)nc(Nc3ccncc3F)c21 (stereo partly drawn) [Example 68, 3-(4-(4-(4-(6-(4-((3-fluoropyridin-4-yl)amino)-3-isopropyl-3H-imidazo[4,5-c]pyridin-6-yl)-2-oxo-1-((1S,3S)-3-(piperidin-1-yl)cyclobutyl)spiro[indoline-3,4′-piperidine]-1′-carbonyl)piperidine-1-carbonyl)piperidin-1-yl)phenyl)piperidine-2,6-dione]",< 100,70 to 85
"CC(C)n1cnc2cc(-c3ccc4c(c3)N([C@H]3C[C@@H](N5CCCCC5)C3)C(=O)C43CCN(C(=O)CN4CCN(C(=O)C5CCN(c6ccc(C7CCC(=O)NC7=O)cn6)CC5)CC4)CC3)nc(NC3CC3)c21 (mixture of isomers) [Example 243, (3RS)-3-(6-{4-[4-(2-{6-[4-(cyclopropylamino)-3-(propan-2-yl)-3H-imidazo[4,5-c]pyridin-6-yl]-2-oxo-1-[(1S,3S)-3-(piperidin-1-yl)cyclobutyl]-1,2-dihydrospiro[indole-3,4′-piperidin]-1′-yl}-2-oxoethyl)piperazine-1-carbonyl]piperidin-1-yl}pyridin-3-yl)piperidine-2,6-dione]",< 100,70 to 85
"CC(C)n1cnc2cc(-c3ccc4c(c3)N([C@H]3C[C@@H](N5CCCCC5)C3)C(=O)C43CCN(C(=O)C[C@@H]4CCCN(C(=O)CC5CCN(c6ccc(C7CCC(=O)NC7=O)cn6)CC5)C4)CC3)nc(NC3CC3)c21 (mixture of isomers) [Example 299, (3RS)-3-[6-(4-{2-[(3S)-3-(2-{6-[4-(cyclopropylamino)-3-(propan-2-yl)-3H-imidazo[4,5-c]pyridin-6-yl]-2-oxo-1-[(1S,3S)-3-(piperidin-1-yl)cyclobutyl]-1,2-dihydrospiro[indole-3,4′-piperidin]-1′-yl}-2-oxoethyl)piperidin-1-yl]-2-oxoethyl}piperidin-1-yl)pyridin-3-yl]piperidine-2,6-dione]",100 to 500,70 to 85
